According to patent US6589984B1, “Benzofurylpyrone derivatives” (Teijin Limited, priority 1998, dated 2003):

Each compound was assayed on Human hepatic cancer cells HepG2 (assay: TG production inhibiting activity (14C-acetic acid incorporation into TG) in HepG2 cells). Conditions: Homo sapiens, HepG2; group criterion, alternatives: IC50 at least 10 μM and less than 100 μM, or at least 5% and less than 30% inhibition at 1 μM, or at least 30% and less than 50% inhibition at 10 μM.
Format: cell-based
Procedure: Human hepatic cancer cells HepG2 were inoculated into a 24-well plate (Costar No. 3524) at 4×10^4 cells/well, and 1 ml of medium (eRDF medium containing 10% bovine serum (Kyokuto Chemical Co.)) was used for 6 day culturing with 5% CO2 at 37° C. After drawing off the supernatant medium, the cells were freshly rinsed with 1 ml of PBS(−) buffer solution (Takara Shuzo) and drawn off. This procedure was repeated twice and then 1 ml of fresh medium (eRDF medium) was added.
6-(benzofuran-2-yl)-3,5-dimethyl-4-hydroxy-2H-pyran-2-one (Example 2) was dissolved in dimethylsulfoxide (DMSO) to prepare a 20 mM sample stock solution. A diluted solution was obtained by diluting the sample solution with DMSO.
To the cells prepared above there were added the sample stock solution or its diluted solution at 5 μl per well and 10 μl of ^14C-acetic acid solution (a solution of Amersham Code No. CFA13 diluted 4.4-fold with PBS(−) buffer), and culturing was carried out for one day with 5% CO2 at 37° C.
After the culturing was completed, the culture solution was removed, and 1 ml of extraction solution (a mixture of n-hexane and isopropyl alcohol at 2:1) was added for extraction treatment on the lipid components in the cells. After the treatment, the extract containing the obtained lipid components was air-dried, the residue was redissolved in 20 μl of a mixed solution of n-hexane and ethyl acetate at 9:1, and the solution was spotted on a thin-layer chromatography plate (S319, Tokyo Kasei) and developed by thin-layer chromatography with the mixed solution mentioned above. After air-drying, the lipid components were colored with iodine vapor, the portion corresponding to TG was cut out, and the amount of TG biosynthesized was measured with a liquid scintillation counter.

Row | Structure (SMILES) | IC50
1 | Cc1c(-c2cc3cc(OCc4c(Cl)cccc4Cl)ccc3o2)oc(=O)c(C)c1O [Example 157, 6-(5-(2,6-dichlorobenzyloxy)benzofuran-2-yl)-3,5-dimethyl-4-hydroxy-2H-pyran-2-one] | 10 to 100 µM
2 | Cc1c(-c2cc3cc(OCc4ccccn4)ccc3o2)oc(=O)c(C)c1O [Example 87, 3,5-dimethyl-4-hydroxy-6-(5-(2-pyridylmethoxy)benzofuran-2-yl)-2H-pyran-2-one] | 10 to 100 µM
3 | Cc1c(-c2cc3cc(OCC4CCCCN4C)ccc3o2)oc(=O)c(C)c1O (stereo not shown) [Example 95, 3,5-dimethyl-4-hydroxy-6-(5-(1-methylpiperidin-2-ylmethoxy)benzofuran-2-yl)-2H-pyran-2-one] | 10 to 100 µM
4 | Cc1c(-c2cc3cc(OCc4ccc5ccccc5c4)ccc3o2)oc(=O)c(C)c1O [Example 175, 3,5-dimethyl-4-hydroxy-6-(5-(2-naphthylmethoxy)benzofuran-2-yl)-2H-pyran-2-one] | 10 to 100 µM
5 | CCC=CCCOc1ccc2oc(-c3oc(=O)c(C)c(O)c3C)cc2c1 [Example 179, 3,5-dimethyl-6-(5-(3-hexen-1-yloxy)benzofuran-2-yl)-4-hydroxy-2H-pyran-2-one] | 10 to 100 µM
6 | CC(=O)Oc1c(C)c(-c2cc3ccc(-c4ccco4)cc3o2)oc(=O)c1C [Example 24, 4-acetyloxy-3,5-dimethyl-6-(6-(2-furyl)benzofuran-2-yl)-2H-pyran-2-one] | 10 to 100 µM
7 | Cc1c(-c2cc3cccc(O)c3o2)oc(=O)c(C)c1O [Example 281, 3,5-dimethyl-4-hydroxy-6-(7-hydroxybenzofuran-2-yl)-2H-pyran-2-one] | 10 to 100 µM
8 | Cc1c(-c2cc3cc(OCCCCNC(=O)OC(C)(C)C)ccc3o2)oc(=O)c(C)c1O [Example 224, 6-(5-(4-(t-butoxycarbonylamino)butoxy)benzofuran-2-yl)-3,5-dimethyl-4-hydroxy-2H-pyran-2-one] | 10 to 100 µM
9 | CC(=O)Oc1ccc2oc(-c3oc(=O)c(C)c(OC(C)=O)c3C)cc2c1 [Example 269, 4-acetyloxy-6-(5-acetyloxybenzofuran-2-yl)-3,5-dimethyl-2H-pyran-2-one] | 10 to 100 µM
10 | Cc1c(-c2cc3cc(OCc4ccccc4[N+](=O)[O-])ccc3o2)oc(=O)c(C)c1O [Example 230, 3,5-dimethyl-4-hydroxy-6-(5-(2-nitrobenzyloxy)benzofuran-2-yl)-2H-pyran-2-one] | 10 to 100 µM
11 | CCOCCOc1ccc2oc(-c3oc(=O)c(C)c(O)c3C)cc2c1 [Example 185, 3,5-dimethyl-6-(5-(2-ethoxyethoxy)benzofuran-2-yl)-4-hydroxy-2H-pyran-2-one] | 10 to 100 µM
12 | Cc1c(-c2cc3cc(OCc4cccc(Br)c4)ccc3o2)oc(=O)c(C)c1O [Example 83, 6-(5-(3-bromobenzyloxy)benzofuran-2-yl)-3,5-dimethyl-4-hydroxy-2H-pyran-2-one] | 10 to 100 µM
13 | Cc1c(-c2cc3cc(OCC4CCCCC4)ccc3o2)oc(=O)c(C)c1O [Example 207, 6-(5-(cyclohexylmethoxy)benzofuran-2-yl)-3,5-dimethyl-4-hydroxy-2H-pyran-2-one] | 10 to 100 µM

Same assay, conditions: Homo sapiens, HepG2; group criterion, alternatives: IC50 less than 10 μM, or at least 30% inhibition at 1 μM, or at least 50% inhibition at 10 μM

Row | Structure (SMILES) | IC50
14 | CC(=O)Oc1c(C)c(-c2cc3cc(OCc4nccs4)ccc3o2)oc(=O)c1C [Example 59, 4-acetyloxy-3,5-dimethyl-6-(5-(2-thiazolylmethoxy)benzofuran-2-yl)-2H-pyran-2-one] | < 10 µM
15 | Cc1c(-c2cc3ccccc3o2)oc(=O)c(C)c1OC(=O)c1ccccc1 [Example 3, 6-(benzofuran-2-yl)-4-benzoyloxy-3,5-dimethyl-2H-pyran-2-one] | < 10 µM
16 | Cc1c(-c2cc3ccccc3o2)oc(=O)c(C)c1C(=O)OC1CCC(=O)N1 (stereo not shown) [Example 70, 6-(benzofuran-2-yl)-3,5-dimethyl-4-(2-pyrrolidon-5-ylcarboxy)-2H-pyran-2-one] | < 10 µM
17 | CC(=O)Oc1c(C)c(-c2cc3ccc(OS(=O)(=O)C(F)(F)F)cc3o2)oc(=O)c1C [Example 19, 4-acetyloxy-3 ,5-dimethyl-6-(6-(trifluoromethanesulfonyloxy)benzofuran-2-yl)-2H-pyran-2-one] | < 10 µM
18 | Cc1c(-c2cc3ccc(OC4CCCc5ccccc54)cc3o2)oc(=O)c(C)c1O (stereo not shown) [Example 170, 3,5-dimethyl-4-hydroxy-6-(6-(1,2,3,4-tetrahydronaphthalen-1-yloxy)benzofuran-2-yl)-2H-pyran-2-one] | < 10 µM
19 | COc1ccc2oc(-c3oc(=O)c(C)c(O)c3C)cc2c1 [Example 12, 3,5-dimethyl-4-hydroxy-6-(5-methoxybenzofuran-2-yl)-2H-pyran-2-one] | < 10 µM
20 | Cc1c(O)c(C(C)C)c(-c2cc3ccccc3o2)oc1=O [Example 34, 6-(benzofuran-2-yl)-4-hydroxy-5-isopropyl-3-methyl-2H-pyran-2-one] | < 10 µM
21 | COC(=O)c1ccc2oc(-c3oc(=O)c(C)c(O)c3C)cc2c1 [Example 290, 3,5-dimethyl-4-hydroxy-6-(5-(methoxycarbonyl)benzofuran-2-yl)-2H-pyran-2-one] | < 10 µM
22 | Cc1c(-c2cc3cc(C(=O)N(C)c4ccccc4)ccc3o2)oc(=O)c(C)c1O [Example 299, 3,5-dimethyl-4-hydroxy-6-(5-(N-methyl-N-phenylcarbamoyl)benzofuran-2-yl)-2H-pyran-2-one] | < 10 µM
23 | Cc1c(-c2cc3cc(C(=O)N(C)Cc4ccccc4)ccc3o2)oc(=O)c(C)c1O [Example 308, 6-(5-(N-benzyl-N-methylcarbamoyl)benzofuran-2-yl)-3,5-dimethyl-4-hydroxy-2H-pyran-2-one] | < 10 µM
24 | Cc1c(-c2cc3cc(OCc4cccnc4)ccc3o2)oc(=O)c(C)c1O [Example 89, 3,5-dimethyl-4-hydroxy-6-(5-(3-pyridylmethoxy)benzofuran-2-yl)-2H-pyran-2-one] | < 10 µM
25 | Cc1c(-c2cc3cc(OCc4ccsc4)ccc3o2)oc(=O)c(C)c1O [Example 246, 3,5-dimethyl-4-hydroxy-6-(5-(3-thienylmethoxy)benzofuran-2-yl)-2H-pyran-2-one] | < 10 µM
26 | Cc1c(-c2cc3cc(C4CCNCC4)ccc3o2)oc(=O)c(C)c1O [Example 307, 3,5-dimethyl-4-hydroxy-6-(5-(4-piperidinyl)benzofuran-2-yl)-2H-pyran-2-one] | < 10 µM
27 | CC(=O)Oc1c(C)c(-c2cc3cc(Br)ccc3o2)oc(=O)c1C [Example 65, 4-acetyloxy-6-(5-bromobenzofuran-2-yl)-3,5-dimethyl-2H-pyran-2-one] | < 10 µM
28 | Cc1c(-c2cc3ccccc3o2)oc(=O)c(C)c1OS(C)(=O)=O [Example 4, 6-(benzofuran-2-yl)-3,5-dimethyl-4-methanesulfonyloxy-2H-pyran-2-one] | < 10 µM
29 | CC(=O)Oc1c(C)c(-c2cc3c(OCc4ccccc4)cccc3o2)oc(=O)c1C [Example 260, 4-acetyloxy-6-(4-benzyloxybenzofuran-2-yl)-3,5-dimethyl-2H-pyran-2-one] | < 10 µM
30 | Cc1c(-c2cc3cc(OCC4CCCN(C)C4)ccc3o2)oc(=O)c(C)c1O (stereo not shown) [Example 97, 3,5-dimethyl-4-hydroxy-6-(5-(1-methylpiperidin-3-ylmethoxy)benzofuran-2-yl)-2H-pyran-2-one] | < 10 µM
31 | Cc1c(-c2cc3cc(N(C)C(=O)c4cccs4)ccc3o2)oc(=O)c(C)c1O [Example 252, 3,5-dimethyl-4-hydroxy-6-(5-(N-methyl-N-(2-thienylcarbonyl)amino)benzofuran-2-yl)-2H-pyran-2-one] | < 10 µM
